From patent publication US11197859B2 (AUTIFONY THERAPEUTICS LIMITED, priority 2010, dated 2021)
Where two headings read alike, the source gives them in different places.

Columns and labels:
[1] = Blood concentrations in satellite animals of the electroshock seizure study; format: in vivo; conditions: CD, whole blood, po, rat, 2 hours after dosing
Description: Testing involved determining the threshold for tonic hindlimb extensor seizures using a Hugo Sachs Electronik stimulator which delivers a constant current of 0.3 second duration, 50 Hz, sinewave form, fully adjustable between 1 and 300 mA. Stimuli were delivered via corneal electrodes (Stean T O, Atkins A R, Heidbreder C A, Quinn L P, Trail B K, Upton N. (2005) Br J Pharmacol. 144(5):628-35). Seizure threshold was determined using the ‘up and down’ method of Kimball et al. (1957)(Kimball A W, Burnett W T Jr, Doherty D G. (1957) Radiat Res. 7(1):1-12). The first animal tested in each group was stimulated with a current that might be expected to be close to the threshold for induction of a seizure. If a tonic seizure was not induced, then the next animal in the group received a stimulus 5 mA higher. If a tonic seizure was induced, then the next animal received a stimulus 5 mA lower. This is repeated for all animals within the control (vehicle) group. In the case of groups treated with a test compound steps of 5 to 10 mA were used. At the end of the study, blood samples were taken for analysis of the drug concentrations in this compartment (n=4/group).
All doses were calculated as base. Sodium valproate was suspended in Methocell 1% (w/v) and dosed via the oral (p.o.) route at 5 mL/kg 1 hour before test. Reference Example RE1 was dissolved in DMSO and then suspended in Methocell 1% (w/v) to a final DMSO concentration of 5% (v/v). Reference Example RE1 was then dosed p.o. at 5 mL/kg 2 hours before test.
Blood concentrations of Reference Example RE1 measured in satellite animals 2 hours after dosing were 5.3 and 9.1 μg/mL following the doses of 30 and 60 mg/kg p.o., respectively. These concentrations are equivalent to unbound concentrations in blood of 1.3 and 2.2 μM, respectively, and thus are consistent with concentrations of Reference Example RE1 that produce a significant increase in Kv3-mediated currents observed in the in vitro recombinant human Kv3 electrophysiology assay, described above.

MNTB neurons = assay: High-voltage activated potassium currents in MNTB neurons, in vitro; format: cell-based, mouse; conditions: 10 microM in continuing presence of TEA (1 mM); effect on the TEA-induced reduction
Description: Male CBA/Ca mice (aged 12-16 days) were used in these experiments (in accordance with the UK Animals Scientific Procedures Act, 1986). Brain slices containing the medial nucleus of the trapezoid body (MNTB) were prepared as described previously (Brew and Forsythe, 2005).
Chemicals and reagents were purchased from Sigma, (Poole, UK) unless otherwise noted. Reference Example RE1 was dissolved in DMSO and diluted in ACSF to the required concentration.
Recordings from identified MNTB neurons were conducted as previously described (Brew and Forsythe, 2005). Slices was placed in a superfusion chamber on an inverted microscope stage and continuously perfused with gassed (95% O2-5% CO2) ACSF at a rate of 1 ml min-1 at room temperature. Whole-cell recordings were made from visually identified MNTB neurons using an […] amplifier (Molecular Devices, Union City, Calif., USA). Patch solution comprised (in mM) potassium gluconate (97.5), KCl (32.5), Hepes (40), EGTA (5), MgCl2 (1), Na2phosphocreatin (5), pH 7.2 with KOH. Pipettes had resistances of 3-5 MΩ and series resistances were 6-10 MΩ (compensated by 70%, 10 μs lag). Access resistance was frequently monitored and the recording discarded if increases were more than 2 MΩ. […]

Compound: CC[C@H]1NC(=O)N(c2ccc(Oc3ccc(C)c(OC)c3)nc2)C1=O [RE1, (5R)-5-ethyl-3-(6-{[4-methyl-3-(methyloxy)phenyl]oxy}-3-pyridinyl)-2,4-imidazolidinedione]
- concentration at 2 h ([1]; 30 mg/kg p.o., read-out: blood concentration): 5300 ng/mL
- concentration at 2 h ([1]; 30 mg/kg p.o., read-out: unbound concentration in blood): 1300 nM
- concentration at 2 h ([1]; 60 mg/kg p.o., read-out: blood concentration): 9100 ng/mL
- concentration at 2 h ([1]; 60 mg/kg p.o., read-out: unbound concentration in blood): 2200 nM
- amplitude of outward high voltage-activated potassium currents evoked by voltage steps to +40 mV (MNTB neurons): reversed
